Molecular target: CalO2 (Micromonospora echinospora, UniProt Q8KND6)
Assay: CalO2 ligand binding by UV-vis difference spectra
Design: species or system M. echinospora

SMILES | Kd
CC(=O)NCCSC(=O)c1cccc(I)c1 [compound 13] | 120 µM
CC(=O)NCCSC(=O)c1ccccc1O [compound 14] | 405 ± 100 µM
CC(=O)NCCSC(=O)c1c(C)cc(O)cc1O [compound 11] | 170 ± 30 µM
